row,Structure (SMILES),melting point
1,O=C1CCC(c2ccc(OC3CCN(C4CCC4)CC3)cc2F)=NN1,> 300 °C
2,FC(F)=C(F)CCSc1nnc(-c2ccc(Cl)cc2)s1,68 to 69 °C
3,CC(=O)NCCSCC(=O)[C@H](Cc1ccccc1)NC(=O)[C@H](CC(C)C)NC(=O)OCc1ccccc1,122 to 123 °C
4,CC(C)C(=O)N1C(=O)C2C=CC1C2 (configuration not stated),41 to 42 °C
5,COc1cc(OC)c(NC(=O)CBr)c(OC)c1,160 to 161 °C
6,CCN(CC)CCCCNc1ncc2c(n1)N(C1CCCC1)C(=O)N(c1c(F)c(OC)cc(OC)c1F)C2,132 to 133 °C
7,Cc1cc(-c2cc(N)n3nc(-c4ccco4)nc3c2)ccn1,100 to 101 °C
8,O=C1CCC2C3Cc4ccc(O)cc4C2(CCN3CC2CC2)C1 (configuration not stated),125 to 127 °C
9,O=C(O)c1cc([N+](=O)[O-])cc2c1Nc1ccc(CCCc3ccc(Cl)c(Cl)c3)cc1O2,90 to 93 °C
10,OC(c1ccc(F)cc1)(c1ccc(F)cc1)c1ncc[nH]1,198 to 200 °C
11,O=S1(=O)N[C@@H](c2cccc(Cl)c2)c2ccccc21,137 to 138 °C
12,O=C(NCCc1ccccc1Cl)c1c(Cl)ccc2nc(N3CCC(C(=O)O)CC3)ccc12,250 to 253 °C
13,Cc1cccc(NC(=O)c2cccc(C(F)(F)F)c2)c1C(=O)O,198 to 204 °C
14,COc1ccc(/C=C/C(=O)Nc2ccccc2C(=O)OCC(=O)NCC(C)(C)SN=O)cc1OC,135 to 137 °C
15,CCOc1ccc(Cc2cn(C3OC(COC(C)=O)C(OC(C)=O)C(OC(C)=O)C3OC(C)=O)c3cccc(F)c23)cc1 (configuration not stated),146 to 148 °C
16,Cn1cccc1C(=O)c1[nH]c2ccc(Cl)cc2c1CC(=O)O,203 to 205 °C
17,COC(=O)c1c(-c2cccs2)c2cc(OCc3ccccc3)ccc2c(=O)n1CC(C)C,143 to 144 °C
18,CCS(=O)(=O)Nc1ccc([N+](=O)[O-])cc1SC1CCCCC1,119 to 120 °C
19,COc1cc(OC)nc(NC(=O)NS(=O)(=O)Nn2cccc2C(=O)N(C)C)n1,150 to 152 °C
20,O=C(O)CCCC/C=C(\c1ccc(C2=N[C@H](C(=O)NCCCCC3CCCCC3)CO2)cc1)c1cccnc1,61 °C
21,COc1ccc(Oc2ccccc2)c(NS(C)(=O)=O)c1,110 to 111 °C
22,CC(=O)OC1OCC[C@@H]1NC(=O)[C@@H](N)CC(C)C (some centres not stated),75 to 80 °C
23,Nc1nc(-c2ccc(C(=O)N3CCN(S(=O)(=O)c4ccc5cc(Br)ccc5c4)CC3)cc2)c[nH]1,274 to 275 °C
24,COc1cc2c(cc1OC)CN(c1c(C)c(C)c3c(c1C)C(c1ccc(C(C)C)cc1)C(C)(C)O3)C2 (configuration not stated),153 to 155 °C
25,C=CCCCCCCCCC(O)CNC(=O)N(C)O (configuration not stated),105 to 106 °C
26,COC(=O)[C@@H](NC(=O)Oc1ccccc1)C(C)C,59.1 °C

row,Structure (SMILES),melting point
1,CS(=O)(=O)Nc1cccc(NC(=O)C(=O)N2CCC(Cc3ccc(F)cc3)CC2)c1,102 to 106 °C
2,N#Cc1cc([N+](=O)[O-])[nH]c1-c1ccc(Cl)cc1,201 to 206 °C
3,CCOC(=O)c1nccn1C1C(=O)c2ccccc2N1C(C)=O (configuration not stated),210 °C
4,CN(C)c1cccc(OC(=O)NC2C(=O)N(CC34CC5CC(CC(C5)C3)C4)c3ccccc3N(c3ccccc3)C2=O)c1 (configuration not stated),130 to 132 °C
5,Cc1cc([N+](=O)[O-])c(NC(C)C)c([N+](=O)[O-])c1C,69 to 70 °C
6,COCCOc1ccc(/C=C/C(=O)NS(=O)(=O)C(F)(F)F)c(Oc2ncc(C(F)(F)F)cc2Cl)c1,126 to 128 °C
7,COc1cc(C(=O)c2ccccn2)cc([N+](=O)[O-])c1OC,113 °C
8,COCOc1cc2c(cc1C=O)C(C)(C)CCC2(C)C,84 to 85 °C
9,COc1ccc(CN(C)CCCCc2ccc(NC(=O)c3cccc4c(=O)c5ccccc5n(C)c34)cc2)cc1OC,142 °C
10,C=CCc1cc(C2=NNC(=O)CC2)ccc1O,240 to 244 °C
11,CC(=O)CN1CCc2c(c(=O)oc3cc4c(cc23)OCO4)C1,167 to 170 °C
12,Nc1c(O)cc2c(c1[N+](=O)[O-])CCC2,196 to 198 °C
13,O=C1c2ccccc2C(O)N1CCCN1CCN(c2ccc(F)cc2)CC1 (configuration not stated),155 °C
14,Cc1ccc(O)c(C)c1[N+](=O)[O-],99 to 101 °C
15,CCn1c(=O)c(C(=O)O)c(O)c2ccc(C)nc21,162 to 165 °C
16,COc1cc2c(O)c3c4c(ccnc4c2cc1OC)CCC3,218 °C
17,O=C(O)c1cc(S(=O)(=O)CCO)ccc1[N+](=O)[O-],165 to 167 °C
18,O=C(NCCC12CC3CC(CC(C3)C1)C2)c1cc(-c2ccccc2C(=O)O)ccc1Cl,114 to 117 °C
19,N#Cc1ccc2ccc(C(=O)O)cc2c1,279 to 283 °C
20,CCCS(=O)(=O)NNC(=O)NNS(=O)(=O)CCC,191 to 194 °C
21,COC(=O)c1cccc2nnsc12,130 to 133 °C
22,CCCCCCOc1ccc(NC(=O)CC(=O)C(C)(C)C)cc1,70 to 72 °C
23,O=C1CNc2cc(F)ccc2N1,176 to 178 °C
24,CCCC(=Cc1cccs1)[N+](=O)[O-],25 to 25.5 °C
25,CS(=O)(=O)OCC1CCN(C(=O)OCc2ccccc2)CC1,72 to 74 °C
26,COc1ccc(C(=O)Nc2ccccc2)cc1NC(=S)Nc1cccc(C(C)=O)c1,176 to 177 °C

row,Structure (SMILES),melting point
1,O=C(Oc1ccc(OC(=O)c2cc(O)cc(O)c2)c2ccccc12)c1cc(O)cc(O)c1,201 to 203 °C
2,CC(C)Cn1cnc2c(N)nc3cccnc3c21,230 to 232 °C
3,NC(=O)N1CCN(c2nn(-c3ccccc3)c3cc(F)ccc23)CC1,168 to 170 °C
4,COC(=O)CS(=O)C(C)c1ccc(-c2ccccc2F)cc1 (configuration not stated),79 °C
5,CC(=O)NCC(C)(C)c1ccc2nc(-c3c[nH]cn3)[nH]c2c1,235 to 237 °C
6,Cc1cc(C#N)cnc1N,198 to 200 °C
7,Cn1cnc(Cc2cccc(CO)c2O)c1,139 to 144 °C
8,CC(C)n1nc(-c2c(NCc3ccco3)nc(N)nc2-c2ccccc2)ccc1=O,213 to 214 °C
9,C=CCn1c(N)nc(N2CCc3ccccc3CC2)c(C#N)c1=O,181 to 182 °C
10,COc1cc(N2C(=O)c3ccccc3C2=O)ccc1-c1ccc(Cl)s1,194 to 195 °C
11,CC(=O)c1ccc(O)c(C(C)C)c1,142 to 144 °C
12,Cc1cnc2c(C#N)c(-c3ccc(S(=O)(=O)NC4(C(F)(F)F)CC4)cn3)n(C3CCCC3)c2c1,249 to 251 °C
13,CC(C)NC(=O)c1ccccc1F,76 to 78 °C
14,CC(C)OC(=O)C(C(=O)Nc1ccc(C(F)(F)F)cc1)=C1SCS1,151 to 152 °C
15,COc1ccc(Cl)cc1C(=O)NCCc1ccc([N+](=O)[O-])cc1,159 to 160 °C
16,O=C(NCCN1CCN(C(c2ccccc2)c2ccncc2)CC1)C1CSC(c2cccnc2)N1 (configuration not stated),160 to 162 °C
17,c1ccc(-c2cc3ccccc3s2)cc1,171 to 172 °C
18,CCOC(=O)c1ccc(N)c(I)c1,71 to 74 °C
19,CC(C)Oc1ccc(-c2nn(C(C)c3oc4cccc(N5CCOCC5)c4c(=O)c3-c3ccccc3)c3ncnc(N)c23)cc1F (configuration not stated),211 to 214 °C
20,CN(C)C1CCN(c2cc3ccccc3c(=O)[nH]2)C1 (configuration not stated),233 to 234 °C
21,CNc1c(OCCN(Cc2ccccc2)C(=O)OC(C)(C)C)cccc1[N+](=O)[O-],91 to 93 °C
22,CC(=S)NC[C@H]1CN(c2ccc(N3CCN(C)C3=O)c(F)c2)C(=O)O1,168 °C
23,CC(=O)OCC1OC(n2cc(C3=C(c4c[nH]c5ncccc45)C(=O)N(COCc4ccccc4)C3=O)c3ccccc32)C(OC(C)=O)C(OC(C)=O)C1OC(C)=O (configuration not stated),115 to 117 °C
24,CN(C)c1cccc(-c2nc3c(N[C@H]4[C@@H](C(N)=O)[C@@H]5C=C[C@H]4C5)ccnc3[nH]2)c1,200 to 204 °C
25,CCCn1cnc(COc2nn3c(-c4ccccc4)nnc3cc2-c2ccccc2)n1,212 to 214 °C
26,CC(=O)NC[C@H]1CN(c2ccc(N3CCC(=C(C#N)n4ccnc4C)CC3)c(F)c2)C(=O)O1,204 to 206 °C

row,Structure (SMILES),melting point
1,CCOC(=O)C1(C(=O)OCC)CCC2(c3cc(OC)c(OC)cc3CCN2C(=O)CC)C(C2c3cc(OC)c(OC)cc3CCN2CC)C1 (configuration not stated),138 °C
2,Cc1cccc(-n2nc(C)cc2N)n1,149 to 150 °C
3,CCCCC[C@H]1CC[C@H](c2ccc(C(N)=O)cc2)CC1,234 to 235 °C
4,COC(=O)NNc1cc(C)c(Cl)c2c1OC(C)C2 (configuration not stated),157 to 160 °C
5,CCOc1cccc(C)c1S(=O)(=O)N=C=O,40 °C
6,O=C1Cc2c(CCO)cccc2N1,145 to 147 °C
7,COc1ccc(/C=C/CN2CCN(C3c4ccccc4CCc4ncccc43)CC2)cc1[N+](=O)[O-] (configuration not stated),159 to 161 °C
8,Cc1cc(NCCO)c2[nH]nc(C)c2n1,225 to 230 °C
9,O=C(SCSc1c[nH]nn1)c1ccccc1,72.5 to 73.5 °C
10,CCCNC(=O)CCC(C)C1CCC2C3C(OC(C)=O)CC4CC(OO)(OO)CCC4(C)C3CC(OC(C)=O)C12C (configuration not stated),120 to 129 °C
11,COc1ccc(C(=O)c2ccc(=O)[nH]c2C=CN(C)C)cc1,216 to 218 °C
12,CCS(=O)(=O)Nc1ccc(F)c(N)c1,106 to 108 °C
13,CCOCn1c(N)c(C#N)c2c(N)ncnc21,229 to 230 °C
14,Cn1cc(C(=O)Nc2ccccc2OC(F)(F)C(F)Cl)c(C(F)(F)F)n1 (configuration not stated),94 to 95 °C
15,CCOC(=O)c1nc(SC)[nH]c(=O)c1OCc1ccccc1,109 to 110 °C
16,CCOC(=O)C(N)N=Nc1ccc(Br)cc1C(=O)c1ccccn1 (configuration not stated),156 to 157 °C
17,COc1cc2c(cc1Cl)CC(C)=NN=C2c1ccc(N)cc1,198 to 200 °C
18,CNC(=O)C=Cc1ccc(C(=O)O)cc1,270 to 273 °C
19,COC(=O)c1cc(C(=O)NCC(=O)O)c2cc(Cc3ccc(F)cc3)cnc2c1O,246 to 247 °C
20,CC(Oc1ccc(Oc2ccc(C(F)(F)F)cc2)cc1)C(=O)OCS(C)(=O)=O (configuration not stated),87 to 88 °C
21,CC1=C(Cc2ccc(OC(F)(F)F)cc2)C(=O)c2ccccc2C1=O,64 to 65 °C
22,Cc1c(Cl)cc(-c2ccc(=O)[nH]n2)cc1Br,247 to 250 °C
23,CCn1c(C(=O)c2cc(C)cc(C=CC#N)c2)c(C(C)C)c(=O)[nH]c1=O,174 to 176 °C
24,COc1ccc2[nH]c(C(=O)c3cc4ccccc4[nH]3)cc2c1,112 °C
